According to patent publication US20260138978A1, “POSITIVE ALLOSTERIC MODULATORS OF THE MUSCARINIC ACETYLCHOLINE RECEPTOR M1” (Vanderbilt University, priority 2022, published 2026):
pEC50: −log10 of the molar value.

What was measured:
human mAChRM1 [1] = molecular target: T1, human mAChRM1 (Homo sapiens, UniProt P11229); experiment: mAChR M1 cell-based functional assay (calcium mobilization), positive allosteric modulator activity: increase in the EC20 acetylcholine response; conditions: for Emax: PAM mode; for pEC50: increase in the EC20 acetylcholine response, read-out: PAM Activity Human M1 EC50
T1 construct: host or cells: CHO-K1
T1 sequence (P11229 1-460): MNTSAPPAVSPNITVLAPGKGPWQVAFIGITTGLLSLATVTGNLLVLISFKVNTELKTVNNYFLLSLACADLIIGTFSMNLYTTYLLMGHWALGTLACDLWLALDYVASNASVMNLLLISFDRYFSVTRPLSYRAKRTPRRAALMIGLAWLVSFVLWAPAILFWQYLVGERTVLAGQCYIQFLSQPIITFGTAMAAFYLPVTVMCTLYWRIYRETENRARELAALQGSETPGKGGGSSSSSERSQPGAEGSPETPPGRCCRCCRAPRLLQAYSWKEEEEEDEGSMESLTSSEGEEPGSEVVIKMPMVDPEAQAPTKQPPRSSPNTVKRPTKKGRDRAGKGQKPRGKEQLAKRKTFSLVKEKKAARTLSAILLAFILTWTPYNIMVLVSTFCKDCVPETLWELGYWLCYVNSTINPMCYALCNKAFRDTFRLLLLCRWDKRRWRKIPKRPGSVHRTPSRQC
Description: (§1) Chinese hamster ovary (CHO-K1) cells stably expressing rat (r)M1 were purchased from the American Type Culture Collection and cultured according to their indicated protocol. CHO cells stably expressing human (h)M2, hM3, and hM5 were described previously (Levey, et al., 1991); hM1 and hM4 cDNAs were purchased from Missouri S&T cDNA Resource; rM4 cDNA was provided by T. I. Bonner (National Institutes of Health, Bethesda, MD). rM2 and rM3 were cloned from a rat brain cDNA library and sequence verified. hM1, rM2, rM3, hM4, and rM4 cDNAs were used to stably transfect CHO-K1 cells purchased from the American Type Culture Collection using Lipofectamine 2000. To make stable rM2, hM2, rM3, hM4. and rM4 cell lines for use in calcium mobilization assays, these cells also were stably transfected with a chimeric G-protein (Gqi5) (provided by B. R. Conklin, University of California, San Francisco) using Lipofectamine 2000. rM1, hM1, rM3, hM3, rM5, and hM5 cells were grown in Ham's F-12 medium containing 10% heat-inactivated fetal bovine serum (FBS), 20 mM HEPES, and 50 μg/mL G418 sulfate. rM2-Gqi5, hM2-Gqi5, and hM4-Gqi5 cells were grown in the same medium also containing 500 µg/mL Hygromycin B. Stable rM4-Gqi5 cells were grown in DMEM containing 10% heat-inactivated FBS, 20 mM HEPES, 400 μg/mL G418 sulfate, and 500 μg/mL Hygromycin B.
(§2) For high throughput measurement of agonist-evoked increases in intracellular calcium, CHO-K1 cells stably expressing muscarinic receptors were plated in growth medium lacking G418 and hygromycin at 15,000 cells/[…] in Greiner 384-well black-walled, tissue culture (TC)-treated, clear-bottom plates (VWR). Cells were incubated overnight at 37° C. and 5% CO2. The next day, cells were washed using an ELX 405 (BioTek) with four washes (80 μL) of assay buffer then aspirated to 20 μL. Next, 20 μL of 16 μM Fluo-4/acetoxymethyl ester (Invitrogen, Carlsbad, CA) prepared as a 2.3 mM stock in DMSO and mixed in a 1:1 ratio with 10% (w/v) Pluronic F-127 and diluted in assay buffer was added to the wells and the cell plates were incubated for 50 min at 37° C. and 5% CO2. Dye was removed by washing with the ELX 405 (four 80 μL washes of assay buffer) then aspirated to 20 μL. Compound master plates were formatted in an 11 point CR^c format (1:3 dilutions) in 100% DMSO with a starting concentration of 10 mM using the BRAVO liquid handler (Agilent). Test compound CRCs were then transferred to daughter plates (240 nL) using the Echo acoustic plate reformatter (Labcyte, Sunnyvale, CA) and then diluted into assay buffer ([…]) to a 2× stock using a Thermo Fisher Combi (Thermo Fisher Scientific, Waltham, MA).
(§3) Calcium flux was measured using the Functional Drug Screening System (FDSS) 6000 (Hamamatsu Corporation, Tokyo, Japan) as an increase in the fluorescent static ratio. Compounds were applied to cells (20 μL, 2×) using the automated system of the FDSS 6000 at 4 s into the 300 s protocol and the data were collected at 1 Hz. […] Agonist activity was analyzed as a concentration-dependent increase in calcium mobilization upon compound addition. Emax values for agonist activity are expressed relative to the maximum for acetylcholine. Positive allosteric modulator activity was analyzed as a concentration-dependent increase in the EC20 acetylcholine response. Antagonist activity was analyzed as a concentration-dependent decrease in the EC80 acetylcholine response. Concentration-response curves were generated using a four-parameter logistical equation in XLfit curve fitting software (IDBS, Bridgewater, NJ) for Excel (Microsoft, Redmond, WA) or Prism (GraphPad Software, Inc., San Diego, CA).
Activity (EC50 and Emax) was determined in the mAChRM1 cell-based functional assay as described above and the data are shown in Table 16. The compound numbers correspond to the compound numbers used in Table 15.

human mAChRM1 [2] = molecular target: T1, human mAChRM1; experiment: mAChR M1 cell-based functional assay (calcium mobilization), agonist activity upon compound addition, Emax relative to acetylcholine maximum; conditions: for Agonist Activity Human M1 EC50 / pEC50: calcium mobilization upon compound addition; for Emax: relative to the maximum for acetylcholine
Description: Lack of agonist activity may be measured as weak or no increase in calcium fluorescence in mAChRM1-transfected CHO-K1 cells in the presence of the compound, compared to the response of equivalent CHO-K1 cells in the absence of the compound. Lack of mAChRM1 agonist activity may be determined as a percent response relative to acetylcholine. For example, a disclosed compound may have less than or equal to 30%, 25%, 20%, 15%, 10%, 5%, or 1% mAChRM1 agonist activity relative to acetylcholine. A disclosed compound may have substantially no mAChRM1 agonist activity. […] The absence of mAChRM1 agonist activity may contribute to the avoidance of cholinergic adverse effect liability.
as §1, §2
as §3, with “Antagonist activity was analyzed as a concentration-dependent decrease in the EC80 acetylcholine response. Concentration-response curves were generated using a four-parameter logistical equation in XLfit curve fitting software (IDBS, Bridgewater, NJ) for Excel (Microsoft, Redmond, WA) or Prism (GraphPad Software, Inc., San Diego, CA).” left out

| SMILES | Emax (human mAChRM1 [1]) [%] | pEC50 (human mAChRM1 [1]) | Agonist Activity Human M1 EC50 (human mAChRM1 [2]) | pEC50 (human mAChRM1 [2]) | Emax (human mAChRM1 [2]) [%] |
| --- | --- | --- | --- | --- | --- |
| CC(C)(O)c1ccc(-c2cc(F)c(CN3Cc4ncccc4C3=O)cc2F)cc1 [Compound 49, 6-((2,5-difluoro-4′-(2-hydroxypropan-2-yl)-[1,1′-biphenyl]-4-yl)methyl)-6,7-dihydro-5H-pyrrolo[3,4-b]pyridin-5-one] | 66 | 5.92 | inactive |  |  |
| Cn1cc(-c2cc(F)c(CN3Cc4ncccc4C3=O)c(F)c2)c(C(C)(C)O)n1 [Compound 28, 6-(2,6-difluoro-4-(3-(2-hydroxypropan-2-yl)-1-methyl-1H-pyrazol-4-yl)benzyl)-6,7-dihydro-5H-pyrrolo[3,4-b]pyridin-5-one] | 55 | ≤ 5.00 | inactive |  |  |
| [2H]C1([2H])c2ncccc2C(=O)N1Cc1c(Cl)cc(-c2ccc(C(C)(C)O)c3nn(C)cc23)cc1C1CC1 [Compound 150, 6-(2-chloro-6-cyclopropyl-4-(7-(2-hydroxypropan-2-yl)-2-methyl-2H-indazol-4-yl)benzyl)-6,7-dihydro-5H-pyrrolo[3,4-b]pyridin-5-one-7,7-d2] | 79 | 6.44 |  | 5.17 | 23 |
| Cc1cc(-c2cc3c(c(C(C)(C)O)c2)OCO3)cc(F)c1CN1Cc2ncccc2C1=O [Compound 18, 6-(2-fluoro-4-(7-(2-hydroxypropan-2-yl)benzo[d][1,3]dioxol-5-yl)-6-methylbenzyl)-6,7-dihydro-5H-pyrrolo[3,4-b]pyridin-5-one] | 49 | 5.20 | inactive |  |  |
| Cn1cc2cc(-c3cc(F)c(CN4Cc5cccc(F)c5C4=O)c(Cl)c3)cc(C(C)(C)O)c2n1 [Compound 171, 2-(2-chloro-6-fluoro-4-(7-(2-hydroxypropan-2-yl)-2-methyl-2H-indazol-5-yl)benzyl)-7-fluoroisoindolin-1-one] | 75 | ≤ 5.00 | inactive |  |  |
| CC(C)COc1cc(-c2ccc(C(C)(C)O)cc2)cc(F)c1CN1Cc2ncccc2C1=O [Compound 14, 6-((3-Fluoro-4′-(2-hydroxypropan-2-yl)-5-isobutoxy-[1,1′-biphenyl]-4-yl)methyl)-6,7-dihydro-5H-pyrrolo[3,4-b]pyridin-5-one] | 76 | 5.63 | inactive |  |  |
| Cn1nc2cc(C(C)(C)O)ccc2c1-c1cc(F)c(CN2Cc3ncccc3C2=O)c(F)c1 [Compound 51] | 30 | ≤ 5.00 | inactive |  |  |
| Cn1cc2c(-c3cc(F)c(CN4Cc5cccc(F)c5C4=O)c(F)c3)ccc(C3(O)COC3)c2n1 [Compound 159, 2-(2,6-difluoro-4-(7-(3-hydroxyoxetan-3-yl)-2-methyl-2H-indazol-4-yl)benzyl)-7-fluoroisoindolin-1-one] | 81 | 6.93 | inactive |  |  |

Second part, the molecule after the results:

| Emax (human mAChRM1 [1]) [%] | pEC50 (human mAChRM1 [1]) | Agonist Activity Human M1 EC50 (human mAChRM1 [2]) | pEC50 (human mAChRM1 [2]) | Emax (human mAChRM1 [2]) [%] | SMILES |
| --- | --- | --- | --- | --- | --- |
| 89 | 6.69 |  | ≤ 5.00 | 27 | [2H]C1([2H])c2ncccc2C(=O)N1Cc1cc(F)c(-c2ccc(C(C)(C)O)c3nn(C)cc23)cc1F [Compound 148, 6-(2,5-difluoro-4-(7-(2-hydroxypropan-2-yl)-2-methyl-2H-indazol-4-yl)benzyl)-6,7-dihydro-5H-pyrrolo[3,4-b]pyridin-5-one-7,7-d2] |
| 89 | 7.00 |  | 5.25 | 58 | [2H]C1([2H])c2ncccc2C(=O)N1Cc1c(C)cc(-c2ccc(C(C)(C)O)c3nn(C)cc23)cc1F (single isomer, unassigned) [Compound 144, 6-(2-fluoro-4-(7-(2-hydroxypropan-2-yl)-2-methyl-2H-indazol-4-yl)-6-methylbenzyl)-6,7-dihydro-5H-pyrrolo[3,4-b]pyridin-5-one-7,7-d2] |
| 75 | 6.38 | inactive |  |  | Cn1cc2c(-c3cc(F)c(CN4Cc5ncc(Br)cc5C4=O)c(F)c3)ccc(C(C)(C)O)c2n1 [Compound 173, 3-bromo-6-(2,6-difluoro-4-(7-(2-hydroxypropan-2-yl)-2-methyl-2H-indazol-4-yl)benzyl)-6,7-dihydro-5H-pyrrolo[3,4-b]pyridin-5-one] |
| 60 | 5.89 | inactive |  |  | C[C@H](c1c(F)cc(-c2ccc(C(C)(C)O)c3nn(C)cc23)cc1F)N1Cc2ncccc2C1=O [Compound 94, (R)-6-(1-(2,6-difluoro-4-(7-(2-hydroxypropan-2-yl)-2-methyl-2H-indazol-4-yl)phenyl)ethyl)-6,7-dihydro-5H-pyrrolo[3,4-b]pyridin-5-one] |
| 86 | 7.35 |  | 5.28 | 47 | Cn1cc2c(-c3cc(F)c(CN4Cc5ncccc5C4=O)c(C4CC4)c3)ccc(C(C)(C)O)c2n1 [Compound 3, 6-(2-cyclopropyl-6-fluoro-4-(7-(2-hydroxypropan-2-yl)-2-methyl-2H-indazol-4-yl)benzyl)-6,7-dihydro-5H-pyrrolo[3,4-b]pyridin-5-one] |
| 87 | 6.92 |  | 5.40 | 31 | [2H]C1([2H])c2ncccc2C(=O)N1Cc1c(F)cc(-c2ccc(C(C)(C)O)c3nn(C)cc23)cc1F [Compound 142, 6-(2,6-Difluoro-4-(7-(2-hydroxypropan-2-yl)-2-methyl-2H-indazol-4-yl)benzyl)-6,7-dihydro-5H-pyrrolo[3,4-b]pyridin-5-one-7,7-d2] |
| 76 | 6.07 |  | ≤ 5.00 | 13 | Cn1cc2c(-c3cc(F)c(CN4Cc5ncccc5C4=O)c(F)c3)ccc(C3(O)CN(C(=O)OC(C)(C)C)C3)c2n1 [Compound 113, tert-butyl 3-(4-(3,5-difluoro-4-((5-oxo-5,7-dihydro-6H-pyrrolo[3,4-b]pyridin-6-yl)methyl)phenyl)-2-methyl-2H-indazol-7-yl)-3-hydroxyazetidine-1-carboxylate] |
